The record followed here is article PMC10804407, “Rombocin, a Short Stable Natural Nisin Variant, Displays Selective Antimicrobial Activity against Listeria monocytogenes and Employs a Dual Mode of Action to Kill Target Bacterial Strains” (ACS Synthetic Biology, 2024).

The test system of series [1] is L. lactis. In words: Membrane potential determination (DiSC3(5) probe). It counts as cell-based, Lactococcus lactis. The settings on record: 5× MIC, 10 mM HEPES with 10 mM glucose pH 7.2, 2 μM DiSC3(5), 25 min. The procedure:
To measure the membrane potential, the membrane potential-sensitive fluorescent dye DiSC3(5) was utilized. L. lactis was cultured to an OD600 of 0.8, pelleted at 5000g for 5 min, and washed twice in 10 mM HEPES with 10 mM glucose (pH 7.2). The cell density was adjusted to an OD600 of 0.2 and loaded with 2 μM DiSC3(5) dye, followed by 20 min of incubation in the dark to stabilize the probe fluorescence. Next, the cell suspension was added to a 96-well microplate and incubated for 5 min with 100 mM KCl. […] The fluorescence spectrometer’s excitation and emission wavelengths were adjusted to 622 and 670 nm, respectively. Three technical replicates were performed, and the representative example is shown.

The next series has as its system Bacillus cereus CH-85. It is filed as cell-based. The procedure:
(§1) Each experiment was performed in triplicate.

Series [2] deals with L. lactis. The experiment in a line: Potassium ion efflux assay (PBFI probe). It is filed as cell-based, Lactococcus lactis. The settings on record: 5× MIC, 10 mM HEPES pH 7.2 with 0.5% glucose, 10 μM PBFI. How it is done: To perform the K^+ release assay, we used the K^+-specific fluorescent probe PBFI. L. lactis was cultured in GM17 until the OD600 reached 0.6, after which the cells were harvested (5000g, 5 min) and washed twice with 10 mM HEPES (pH 7.2) with 0.5% glucose. The cells were then resuspended in the same buffer containing 10 μM PBFI. Data were analyzed using a Varioskan LUX Multimode Microplate Reader; cells were excited at 346 nm, and the fluorescence emission was measured at 505 nm to establish a baseline signal before the addition of 5-fold MIC antibiotics, after which data were collected. Nisin was used as a positive control.

A further series has as its system L. monocytogenes TT82E. It counts as cell-based, Listeria monocytogenes. The procedure:
as §1

A further series relates to L. monocytogenes LK132. It counts as cell-based, Listeria monocytogenes. The procedure:
as §1

Series [3] relates to L. monocytogenes LMG10470. It counts as cell-based, Listeria monocytogenes. The procedure:
as §1

The subject of a further series is S. aureus LMG10147. It counts as cell-based, Staphylococcus aureus. How it is done: as §1
The test system of series [4] is S. aureus LMG15975 (MRSA). It is filed as cell-based, Staphylococcus aureus. How it is done:
as §1

In series [5] the test system is L. lactis MG1363. It counts as cell-based, Lactococcus lactis. The procedure: as §1
The subject of series [6] is E. faecium LMG16003 (VRE). It is filed as cell-based, Enterococcus faecium. The procedure: as §1
For another series, the system named is E. faecium LMG11423. It is filed as cell-based, Enterococcus faecium. The procedure: as §1
Series [7] has as its system L. lactis. The experiment in a line: Fluorescence microscopy assay of membrane integrity (SYTO 9 / propidium iodide). The settings on record: 5× MIC, 15 min / 20 min (method), room temperature. It counts as cell-based, Lactococcus lactis. The procedure:
L. lactis was cultured until it reached an OD600 of 0.8 and then pelleted at 8000g for 5 min and washed three times in 0.7% NaCl. The cell density was normalized to an OD600 of 0.4 in 0.7% NaCl, and a concentration of 5-fold MIC value of each tested antibiotic was added to the cell suspension simultaneously with SYTO 9 and propidium iodide using the LIVE/DEAD Baclight Bacterial Viability Kit (Invitrogen). After incubation at room temperature for 20 min, the compounds were removed by washing the cells with 0.7% NaCl. Finally, the cell suspensions were loaded onto 1.5% agarose pads and analyzed with a DeltaVision Elite microscope (Applied Precision).

For series [8], the system named is E. faecalis LMG16216 (VRE). It counts as cell-based, Enterococcus faecalis. How it is done:
as §1

Series [9] deals with trypsin, chymotrypsin, and proteinase K. The experiment in a line: Stability against proteolytic enzymes by residual antimicrobial activity. It counts as in vitro ADME. The settings on record: 40 μL peptide (1 mg/mL) with 1 mg/mL proteolytic enzymes, room temperature, 3 h; residual activity in agar well vs L. lactis 1363; triplicate. How it is done:
To investigate the impact of proteolytic enzymes, pH, and temperature on the antimicrobial activity, a representative strain of L. lactis 1363 was utilized. For the proteolytic enzyme assay, 40 μL of peptide (1 mg/mL) was incubated with or without final concentrations of 1 mg/mL proteolytic enzymes at room temperature for 3 h, followed by an activity test in the agar well. To determine pH stability, the pH was adjusted to 2, 4, 7, and 10 using 1 M HCl or NaOH. The temperature stability was assessed by incubating the peptide at 22, 50, 70, and 90 °C for a specified duration. All experiments were performed in triplicate.
Overnight cultures of the test strains were inoculated at a final concentration of 0.1% (v/v) into melted LB agar at 45 °C and then poured onto plates. After solidification, 8 mm wells were created and filled with 40 μL of the lantibiotic solution (1 mg/mL). The lantibiotics were activated by adding 5 μL of NisP directly to the well. The plates were then incubated overnight at 30 °C, and the zone of inhibition was measured. Zone diameters were calculated by subtracting the area of the well (πr^2) from the area of the zone (πr^2) and reported in millimeters. To determine the peptide concentration, purified and lyophilized peptides were resuspended in 0.05% aqueous acetic acid solution and quantified by HPLC following the protocol described by Schmitt et al.[44] […]

The test system of series [10] is L. monocytogenes LMG10470. In words: Agar well diffusion assay and mutant-activity test. It is filed as cell-based, Listeria monocytogenes. The settings on record: 40 μL of 1 mg/mL, zone of inhibition, triplicate. How it is done:
Overnight cultures of the test strains were inoculated at a final concentration of 0.1% (v/v) into melted LB agar at 45 °C and then poured onto plates. After solidification, 8 mm wells were created and filled with 40 μL of the lantibiotic solution (1 mg/mL). The lantibiotics were activated by adding 5 μL of NisP directly to the well. The plates were then incubated overnight at 30 °C, and the zone of inhibition was measured. Zone diameters were calculated by subtracting the area of the well (πr^2) from the area of the zone (πr^2) and reported in millimeters. To determine the peptide concentration, purified and lyophilized peptides were resuspended in 0.05% aqueous acetic acid solution and quantified by HPLC following the protocol described by Schmitt et al.[44] All experiments were performed in triplicate.
On the technique in general: In agar diffusion tests the substance spreads into inoculated agar from a disc or well.

The test system of series [11] is L. lactis MG1363. The experiment in a line: Time-kill assay. The settings on record: L. lactis, 5-fold MIC, time-dependent killing. It is filed as cell-based, Lactococcus lactis. The procedure: The bactericidal activity of nisin, nisin(1–22), and rombocin was evaluated according to a previously described procedure based on Guo et al.[38] Briefly, an overnight culture of L. lactis MG1363 was diluted 50-fold in GM17 medium and incubated at 30 °C. The bacteria were grown until reaching an optical density at 600 nm (OD600) of 0.5, at which point the cell concentration was adjusted to 5 × 10^5 CFU/mL. Subsequently, the bacteria were challenged with a 5-fold MIC of each peptide. A control sample of an untreated cell suspension was included. At specific time points, 50 μL aliquots were collected, and undiluted and 10-fold serially diluted suspensions were plated on GM17 agar. The plates were incubated overnight at 30 °C, and the resulting colonies were counted and calculated as colony-forming units per milliliter (CFU/mL). Both assays were performed in triplicate to ensure reproducibility.

Values after ≈ are worked out from the molar mass of the structure shown. Where two headings read alike, the source gives them in different places. Primed or numbered codes have the meaning given here. Where no end group is shown, it is not given here. [ ]: non-standard residue; d: D form. Dhb′ = not defined here; Dha = C=C(N)C(=O)O

Broadly, the MIC is the smallest concentration in the dilution series that meets the test's criterion for growth inhibition. Low readings indicate greater potency, high ones weaker potency.

Consider `C=C(NC(=O)[C@@H](NC(=O)[C@H](Cc1c[nH]cn1)NC(=O)[C@@H](NC(=O)[C@H](CO)NC(=O)[C@@H]1CS[C@@H](C)[C@H]2NC(=O)[C@H](C)NC(=O)[C@H](NC(=O)[C@H](CCCCN)NC(=O)[C@H](CCSC)NC(=O)[C@H](CC(N)=O)NC(=O)[C@@H]3CS[C@@H](C)[C@@H](NC(=O)[C@H](CCCCN)NC(=O)[C@@H]4CS[C@@H](C)[C@@H](NC(=O)[C@@H]5CSC[C@@H](NC(=O)/C(=C/C)NC(=O)[C@@H](N)[C@@H](C)CC)C(=O)N[C@@H]([C@@H](C)CC)C(=O)NC(=C)C(=O)N[C@@H](CC(C)C)C(=O)N5)C(=O)N5CCC[C@H]5C(=O)NCC(=O)N4)C(=O)NCC(=O)N[C@@H](C)C(=O)N[C@@H](CC(C)C)C(=O)N[C@@H](CCSC)C(=O)NCC(=O)N3)[C@H](C)SC[C@H](NC2=O)C(=O)N[C@@H](CC(N)=O)C(=O)N1)[C@@H](C)CC)C(C)C)C(=O)N[C@@H](CCCCN)C(=O)O` [nisin Z, reference compound], for which the “membrane depolarization (DiSC3(5) fluorescence)” value in the series on L. lactis [1] was “significant membrane depolarization, similar to nisin”. Further, the minimum inhibitory concentration (MIC) was 6,25 μg/mL in the series with Bacillus cereus CH-85 (Bacillus cereus CH-85, broth microdilution, no visible growth, triplicate); 1,56 μg/mL in the series on L. monocytogenes TT82E (L. monocytogenes TT82E, broth microdilution, no visible growth, triplicate); 12,5 μg/mL in the series on L. monocytogenes LK132 (L. monocytogenes LK132, broth microdilution, no visible growth, triplicate); 3,13 μg/mL in [3] (L. monocytogenes LMG10470, broth microdilution, no visible growth, triplicate); 6,25 μg/mL in the series with S. aureus LMG10147 (S. aureus LMG10147, broth microdilution, no visible growth, triplicate); 6,25 μg/mL in series [4] (S. aureus LMG15975 (MRSA), broth microdilution, no visible growth, triplicate). The MIC is listed as 0,02 μg/mL against L. lactis MG1363 [5] (L. lactis MG1363, broth microdilution, lowest concentration with no visible growth, triplicate); 3,13 μg/mL in [6] (E. faecium LMG16003 (VRE), broth microdilution, no visible growth, triplicate); 3,13 μg/mL in the series on E. faecium LMG11423 (E. faecium LMG11423, broth microdilution, no visible growth, triplicate); 3,13 μg/mL in [8] (E. faecalis LMG16216 (VRE), broth microdilution, no visible growth, triplicate). Besides, the “fold lower MIC of nisin than rombocin A” value is given as 4 fold with Bacillus cereus CH-85 (against Bacillus cereus), 2 fold with L. monocytogenes LK132 (against L. monocytogenes LK132), 16 fold in the series with S. aureus LMG10147 (against S. aureus (strain not given)) and 16 fold in series [8] (against Enterococcus faecalis). For the same molecule, the “release of intracellular potassium ions (PBFI fluorescence)” value with L. lactis [2] is “immediate increase in signal”. Also, the “fold lower MIC of nisin than that of rombocin” value with L. lactis MG1363 [5] (against L. lactis) turned out to be 40 times. Further, in the series on E. faecium LMG11423 (against Enterococcus faecium (strain not given)), the “fold higher antimicrobial activity of nisin than rombocin A (MIC)” value is on record as 32 times. In addition, the “membrane integrity (SYTO 9 / propidium iodide fluorescence)” value with L. lactis [7] is “membrane disruption”. For the same molecule, the “resistance to proteolytic enzymes” value in series [9] is recorded as “varying stability”.

`C=C1NC(=O)[C@H]([C@@H](C)CC)NC(=O)[C@H](NC(=O)/C(=C/C)NC(=O)[C@@H](N)[C@@H](C)CC)CSC[C@@H](C(=O)N[C@H]2C(=O)N[C@@H](C)C(=O)NCC(=O)N[C@H](C(=O)N[C@@H](CCCCN)C(=O)N[C@H]3C(=O)NCC(=O)N[C@@H](C(C)C)C(=O)N[C@@H]([C@@H](C)CC)C(=O)N[C@@H](CCSC)C(=O)N/C(=C\C)C(=O)N[C@H](C(=O)N[C@@H](CCSC)C(=O)N[C@@H]4CSC[C@@H](C(=O)N[C@@H](CCCCN)C(=O)O)NC(=O)CNC(=O)[C@H](CC(N)=O)NC4=O)CS[C@H]3C)CS[C@H]2C)NC(=O)[C@H](CC(C)C)NC1=O` [rombocin K]: the MIC against Bacillus cereus CH-85 (CH-85) was 25 µg/mL (≈ 10.4 µM); in the series with L. monocytogenes TT82E (TT82E), 6,25 μg/mL; in the series on L. monocytogenes LK132 (LK132), 12,5 μg/mL; in series [3] (LMG10470) it was 12,5 μg/mL; against S. aureus LMG10147 (LMG10147), 100 µg/mL (≈ 41.7 µM); in [4] (LMG15975) it was 100 µg/mL (≈ 41.7 µM). For the same molecule, the MIC against L. lactis MG1363 [5] (MG1363) was 0,78 μg/mL; in [6] (LMG16003), 50 µg/mL (≈ 20.9 µM); in the series on E. faecium LMG11423 (LMG11423), 50 µg/mL (≈ 20.9 µM); in series [8] (LMG16216), 50 µg/mL (≈ 20.9 µM). In addition, in series [3] (against all tested Listeria strains), the “fold lower MIC compared to the wild-type rombocin” value amounted to 2 fold. For the same molecule, in [10], the “increase in antimicrobial activity relative to wild-type rombocin” value worked out at 13%.

Turning to “nisin(1–22): truncated nisin variant, bacteriostatic control that only binds lipid II (I[Dhb′]SI[Dha]LCTPGCKTGALMGCNMK; also: lantibiotic: thioether rings and dehydrated residues not placed; UniProt P13068 24-45, looked up, fragment)”, in the series with L. lactis [1], the “membrane depolarization (DiSC3(5) fluorescence)” value was “did not”. Also, the “release of intracellular potassium ions (PBFI fluorescence)” value in the series on L. lactis [2] is recorded as “did not have this effect”. The “membrane integrity (SYTO 9 / propidium iodide fluorescence)” value in the series with L. lactis [7] was “did not cause any significant membrane disruption”. Further, the “bacteriostatic or bactericidal activity” value with L. lactis MG1363 [11] is recorded as “bacteriostatic effect”.
